Experimental findings from PubChem BioAssay (NCI) are described below.

Among the test systems are RPMI-8226 leukemia; SN12C renal; M14 melanoma; HOP-62 NSCLC; SF-539 CNS; SNB-75 CNS; RXF 393 renal; ACHN renal; SW-620 colon; UACC-257 melanoma; A498 renal; NCI-H23 lung; A549 NSCLC; OVCAR-3 ovarian; NCI-H226 lung; K-562 leukemia; TK-10 renal; SK-MEL-2 melanoma; MCF7 breast.
Holding throughout (assay): NCI tumour cell line growth inhibition, 48 h

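Growth conditions: 96-well plates. Treatment: test compound, 48 hours, 5 concentrations. Analysis: linear interpolation between bracketing concentrations; unreached endpoints set to highest concentration. TGI marks complete inhibition of growth.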 Bounds are passed on as bounds.

For the molecule `COC(=O)c1cc(C#N)[nH]c1-c1cccs1`, the TGI in the test with RPMI-8226 leukemia, with SN12C renal, with M14 melanoma, in the test on HOP-62 NSCLC, in the test with SF-539 CNS and in the test with SNB-75 CNS was > 100 µM each time. In addition, the TGI with RXF 393 renal is 86.1 µM; with ACHN renal, > 100 µM; with SW-620 colon, > 100 µM; with UACC-257 melanoma it was > 100 µM; with A498 renal it was 86 µM; with NCI-H23 lung, > 100 µM. For the same molecule, the TGI in the test with A549 NSCLC, in the test on OVCAR-3 ovarian, in the test with NCI-H226 lung and with K-562 leukemia was > 100 µM in each case.
With `CO[C@H](c1ccccc1)[C@H](O)[C@](O)(c1ccccc1)P(=O)(OC)OC`, the TGI in the test with RPMI-8226 leukemia, in the test with SN12C renal, in the test with M14 melanoma, in the test with SF-539 CNS, in the test with SNB-75 CNS and with RXF 393 renal was > 100 µM throughout. For the same molecule, the TGI with TK-10 renal, in the test with ACHN renal, with SW-620 colon, with UACC-257 melanoma, in the test on A498 renal and in the test on NCI-H23 lung was > 100 µM in each case. Besides, the TGI in the test with A549 NSCLC, with OVCAR-3 ovarian, in the test on SK-MEL-2 melanoma, with NCI-H226 lung and with K-562 leukemia was > 100 µM in each case.
As for `CCCCCCCCCCCCNC1(C)CNCCCNCCNCCCNC1`, the TGI amounted to 3.55 µM in the test with RPMI-8226 leukemia; 3.05 µM in the test on SN12C renal; 3.21 µM in the test on M14 melanoma; 3.83 µM with HOP-62 NSCLC; 3.29 µM in the test with SF-539 CNS; 3.15 µM in the test with SNB-75 CNS. Moreover, the TGI stood at 2.93 µM with RXF 393 renal; 3.1 µM with TK-10 renal; 3.41 µM with ACHN renal; 3.27 µM in the test with SW-620 colon; 3.19 µM with UACC-257 melanoma; 3.12 µM in the test on NCI-H23 lung. Besides, the TGI with A549 NSCLC amounted to 3.2 µM; in the test with OVCAR-3 ovarian, 3.28 µM; in the test on SK-MEL-2 melanoma, 3.34 µM; in the test with NCI-H226 lung it was 3.21 µM.
Take `O=C1c2cccnc2C(=O)c2c1nc1ccccc1c2-c1cncc(-c2c3c(nc4ccccc24)C(=O)c2cccnc2C3=O)c1`: the TGI with RPMI-8226 leukemia is 0.808 µM; with SN12C renal, 0.613 µM; with M14 melanoma it was 0.576 µM; in the test with SNB-75 CNS, 1.6 µM; in the test on RXF 393 renal, 5.48 µM; with TK-10 renal it was 2.86 µM. The TGI in the test on ACHN renal was 0.437 µM; in the test with SW-620 colon it was 0.906 µM; in the test on UACC-257 melanoma, 1.08 µM; with A498 renal it was 5.39 µM; with NCI-H23 lung, 0.944 µM; in the test on A549 NSCLC, 2.6 µM. In addition, the TGI in the test on OVCAR-3 ovarian is 3.22 µM; with SK-MEL-2 melanoma, 4.1 µM; with NCI-H226 lung it was 0.883 µM; in the test on K-562 leukemia it was > 24.8 µM.
On to `C/C(=N/NC(=S)N1CCCC1)c1cccc(/C(C)=N\NC(=S)N2CCCC2)n1`, for which the TGI in the test with RPMI-8226 leukemia was 18.1 µM; in the test on SN12C renal, 5.73 µM; in the test with M14 melanoma, 2.56 µM; with HOP-62 NSCLC, 0.891 µM; with SF-539 CNS, 3.72 µM; with RXF 393 renal, 3.18 µM. Moreover, the TGI turned out to be 3.71 µM in the test with TK-10 renal; 3.4 µM in the test with ACHN renal; 4.33 µM in the test with SW-620 colon; 2.59 µM in the test with A498 renal; 6.5 µM in the test with NCI-H23 lung; 9.01 µM in the test on A549 NSCLC. Besides, the TGI in the test on OVCAR-3 ovarian is 2.63 µM; in the test with SK-MEL-2 melanoma, 4.21 µM; with NCI-H226 lung, 3.76 µM; in the test with K-562 leukemia, > 100 µM.
Take `O=C(Nc1ccccc1)C(=O)C(C(=O)c1ccccc1)C(c1ccccc1)c1ccccc1` (stereo unspecified): the TGI in the test with RPMI-8226 leukemia, with SN12C renal, in the test on M14 melanoma, in the test on MCF7 breast, in the test on HOP-62 NSCLC and in the test with SNB-75 CNS was > 10 µM in each case. The TGI in the test on RXF 393 renal, in the test with TK-10 renal, in the test on SW-620 colon, in the test on UACC-257 melanoma, with NCI-H23 lung and in the test on A549 NSCLC was > 10 µM each time. In addition, the TGI in the test on K-562 leukemia was > 10 µM.
On to `CN1CCN(C(=S)N(C)C(=O)c2cccs2)CC1`, for which the TGI with RPMI-8226 leukemia, with SN12C renal, in the test on M14 melanoma, in the test on MCF7 breast, in the test with RXF 393 renal and in the test on TK-10 renal was > 100 µM throughout. The TGI with ACHN renal, in the test with SW-620 colon, with UACC-257 melanoma, in the test with NCI-H23 lung, in the test with A549 NSCLC and with OVCAR-3 ovarian was > 100 µM throughout. Further, the TGI with SK-MEL-2 melanoma, with NCI-H226 lung and with K-562 leukemia was > 100 µM each time.
For `O=C(/C=C\c1ccccc1-c1ccccc1)c1ccccc1`, the TGI in the test on RPMI-8226 leukemia, with SN12C renal, with M14 melanoma, with HOP-62 NSCLC, with SF-539 CNS and in the test with SNB-75 CNS was > 100 µM throughout. Moreover, the TGI with RXF 393 renal, in the test with TK-10 renal, in the test with ACHN renal, in the test on SW-620 colon, in the test with UACC-257 melanoma and with A498 renal was > 100 µM in each case. Moreover, the TGI is > 100 µM in the test with NCI-H23 lung; 91.9 µM in the test with A549 NSCLC; > 100 µM in the test with OVCAR-3 ovarian; > 100 µM in the test with NCI-H226 lung; > 100 µM with K-562 leukemia.
In the case of `COC(=O)/C(=C/CC(N=C(c1ccccc1)c1ccccc1)C(=O)OC)N=C(c1ccccc1)c1ccccc1` (stereo unspecified), the TGI is > 100 µM in the test on RPMI-8226 leukemia; > 100 µM with SN12C renal; > 100 µM with M14 melanoma; > 100 µM with HOP-62 NSCLC; 83.9 µM with SNB-75 CNS; > 100 µM with RXF 393 renal. Besides, the TGI with TK-10 renal, with ACHN renal, in the test with SW-620 colon, in the test with UACC-257 melanoma, in the test with NCI-H23 lung and in the test on A549 NSCLC was > 100 µM in each case. For the same molecule, the TGI in the test with OVCAR-3 ovarian, in the test with SK-MEL-2 melanoma and in the test on K-562 leukemia was > 100 µM each time.
